In the kinase profiling compilation of Christmann-Franck et al. (2016):
Values belong to the molecule of their own block, whether it stands above or below them.

Experiments:
Experiment in all cases: Caliper, Mobility shift assay off-chip
PAK4 (human) = PAK4 (human) (UniProt O96013)
DDR2 (human) = DDR2 (human) (UniProt Q16832)
PRKCH (human) = PRKCH (human) (UniProt P24723)
PAK6 (human) = PAK6 (human) (UniProt Q9NQU5)
FER (human) = FER (human) (UniProt P16591)
TAB1 (human) = TAB1 (human) (UniProt Q15750)
GSG2 (human) = GSG2 (human) (UniProt Q8TF76)
MAP4K4 (human) = MAP4K4 (human) (UniProt O95819)
MKNK2 (human) = MKNK2 (human) (UniProt Q9HBH9)
HIPK2 (human) = HIPK2 (human) (UniProt Q9H2X6)
FGR (human) = FGR (human) (UniProt P09769)
EPHA4 (human) = EPHA4 (human) (UniProt P54764)
CHEK2 (human) = CHEK2 (human) (UniProt O96017)
TAOK2 (human) = TAOK2 (human) (UniProt Q9UL54)
RPS6KA6 KD1 KD2 (human) = RPS6KA6 KD1 KD2 (human) (UniProt Q9UK32)
SLK (human) = SLK (human) (UniProt Q9H2G2)
CDC42BPB (human) = CDC42BPB (human) (UniProt Q9Y5S2)
CAMK2G (human) = CAMK2G (human) (UniProt Q13555)
PRKCI (human) = PRKCI (human) (UniProt P41743)
TNK2 (human) = TNK2 (human) (UniProt Q07912)
PDPK1 (human) = PDPK1 (human) (UniProt O15530)
DYRK1B (human) = DYRK1B (human) (UniProt Q9Y463)
JAK1 JH1 JH2 (human) = JAK1 JH1 JH2 (human) (UniProt P23458)
CAMK2B (human) = CAMK2B (human) (UniProt Q13554)
ROS1 (human) = ROS1 (human) (UniProt P08922)
JAK3 JH1 JH2 (human) = JAK3 JH1 JH2 (human) (UniProt P52333)
MERTK (human) = MERTK (human) (UniProt Q12866)
FLT3 (human) = FLT3 (human) (UniProt P36888)
EPHB2 (human) = EPHB2 (human) (UniProt P29323)
TBK1 (human) = TBK1 (human) (UniProt Q9UHD2)
MAPKAPK3 (human) = MAPKAPK3 (human) (UniProt Q16644)
CAMK2D (human) = CAMK2D (human) (UniProt Q13557)
FES (human) = FES (human) (UniProt P07332)
CSNK1G3 (human) = CSNK1G3 (human) (UniProt Q9Y6M4)

PRKCI (human), sequence (P41743 whole entry, looked up): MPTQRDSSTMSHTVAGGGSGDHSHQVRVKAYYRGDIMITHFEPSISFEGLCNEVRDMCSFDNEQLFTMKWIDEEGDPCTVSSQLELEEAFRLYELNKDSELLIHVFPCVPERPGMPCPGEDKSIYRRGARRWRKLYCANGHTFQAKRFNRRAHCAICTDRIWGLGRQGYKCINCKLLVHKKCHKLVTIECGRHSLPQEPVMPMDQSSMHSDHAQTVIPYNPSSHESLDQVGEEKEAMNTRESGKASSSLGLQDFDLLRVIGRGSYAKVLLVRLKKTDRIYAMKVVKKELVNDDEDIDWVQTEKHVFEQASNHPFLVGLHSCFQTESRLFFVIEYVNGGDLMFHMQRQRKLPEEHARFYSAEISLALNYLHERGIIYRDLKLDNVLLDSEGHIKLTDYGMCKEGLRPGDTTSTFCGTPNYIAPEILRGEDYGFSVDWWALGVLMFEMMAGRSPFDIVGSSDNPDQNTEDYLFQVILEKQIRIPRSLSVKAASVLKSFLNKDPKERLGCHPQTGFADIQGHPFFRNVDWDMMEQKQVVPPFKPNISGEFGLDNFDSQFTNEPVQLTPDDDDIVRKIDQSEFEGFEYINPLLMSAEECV
MAPKAPK3 (human), sequence (Q16644 whole entry, looked up): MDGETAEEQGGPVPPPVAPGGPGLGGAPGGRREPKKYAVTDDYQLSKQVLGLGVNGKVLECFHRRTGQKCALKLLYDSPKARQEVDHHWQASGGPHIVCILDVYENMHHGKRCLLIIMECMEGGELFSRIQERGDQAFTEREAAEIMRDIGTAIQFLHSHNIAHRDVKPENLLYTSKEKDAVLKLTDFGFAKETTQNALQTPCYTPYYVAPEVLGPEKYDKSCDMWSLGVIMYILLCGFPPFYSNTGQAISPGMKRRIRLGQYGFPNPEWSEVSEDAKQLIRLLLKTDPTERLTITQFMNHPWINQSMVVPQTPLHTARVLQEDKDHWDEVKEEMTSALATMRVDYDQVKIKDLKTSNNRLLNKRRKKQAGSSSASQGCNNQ
CAMK2D (human), sequence (Q13557 whole entry, looked up): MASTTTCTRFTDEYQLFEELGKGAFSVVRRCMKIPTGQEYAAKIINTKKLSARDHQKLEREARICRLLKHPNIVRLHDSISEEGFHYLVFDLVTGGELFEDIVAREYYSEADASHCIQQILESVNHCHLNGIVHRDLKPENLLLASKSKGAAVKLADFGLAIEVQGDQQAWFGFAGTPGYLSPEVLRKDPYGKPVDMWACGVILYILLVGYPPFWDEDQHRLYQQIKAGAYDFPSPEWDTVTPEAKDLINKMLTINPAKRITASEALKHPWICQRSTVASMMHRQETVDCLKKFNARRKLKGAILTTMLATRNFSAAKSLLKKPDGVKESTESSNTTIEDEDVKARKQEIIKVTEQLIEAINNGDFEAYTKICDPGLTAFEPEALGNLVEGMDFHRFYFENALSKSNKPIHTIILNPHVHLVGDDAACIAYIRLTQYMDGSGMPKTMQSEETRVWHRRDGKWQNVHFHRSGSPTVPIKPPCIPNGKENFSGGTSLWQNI
MKNK2 (human), sequence (Q9HBH9 whole entry, looked up): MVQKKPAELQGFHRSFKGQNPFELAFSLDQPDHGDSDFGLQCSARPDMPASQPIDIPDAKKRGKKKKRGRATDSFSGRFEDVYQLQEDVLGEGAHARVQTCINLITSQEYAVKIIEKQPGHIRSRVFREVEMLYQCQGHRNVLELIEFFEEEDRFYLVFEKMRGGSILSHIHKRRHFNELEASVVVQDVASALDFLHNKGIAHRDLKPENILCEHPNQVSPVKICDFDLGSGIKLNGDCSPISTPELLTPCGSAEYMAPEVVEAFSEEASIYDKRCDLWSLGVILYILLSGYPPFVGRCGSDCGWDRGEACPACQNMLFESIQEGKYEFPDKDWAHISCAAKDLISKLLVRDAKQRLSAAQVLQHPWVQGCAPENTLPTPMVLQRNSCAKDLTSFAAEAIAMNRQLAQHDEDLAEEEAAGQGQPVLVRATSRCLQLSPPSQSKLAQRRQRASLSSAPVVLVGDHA
TAB1 (human), sequence (Q15750 whole entry, looked up): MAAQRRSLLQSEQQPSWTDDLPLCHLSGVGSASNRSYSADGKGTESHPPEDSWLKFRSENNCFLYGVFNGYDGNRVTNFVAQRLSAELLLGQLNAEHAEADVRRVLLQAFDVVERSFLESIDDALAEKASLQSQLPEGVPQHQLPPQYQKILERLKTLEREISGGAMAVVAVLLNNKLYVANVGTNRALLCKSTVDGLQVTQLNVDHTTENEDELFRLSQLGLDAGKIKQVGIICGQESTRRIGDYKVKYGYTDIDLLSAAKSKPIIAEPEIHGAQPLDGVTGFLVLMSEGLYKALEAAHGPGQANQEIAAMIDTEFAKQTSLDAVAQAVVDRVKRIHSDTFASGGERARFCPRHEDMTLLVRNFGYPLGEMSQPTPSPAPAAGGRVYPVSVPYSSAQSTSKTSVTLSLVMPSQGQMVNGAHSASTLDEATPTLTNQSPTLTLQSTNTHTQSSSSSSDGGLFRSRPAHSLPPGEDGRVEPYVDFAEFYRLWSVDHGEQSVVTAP
ROS1 (human), sequence (P08922 whole entry, looked up): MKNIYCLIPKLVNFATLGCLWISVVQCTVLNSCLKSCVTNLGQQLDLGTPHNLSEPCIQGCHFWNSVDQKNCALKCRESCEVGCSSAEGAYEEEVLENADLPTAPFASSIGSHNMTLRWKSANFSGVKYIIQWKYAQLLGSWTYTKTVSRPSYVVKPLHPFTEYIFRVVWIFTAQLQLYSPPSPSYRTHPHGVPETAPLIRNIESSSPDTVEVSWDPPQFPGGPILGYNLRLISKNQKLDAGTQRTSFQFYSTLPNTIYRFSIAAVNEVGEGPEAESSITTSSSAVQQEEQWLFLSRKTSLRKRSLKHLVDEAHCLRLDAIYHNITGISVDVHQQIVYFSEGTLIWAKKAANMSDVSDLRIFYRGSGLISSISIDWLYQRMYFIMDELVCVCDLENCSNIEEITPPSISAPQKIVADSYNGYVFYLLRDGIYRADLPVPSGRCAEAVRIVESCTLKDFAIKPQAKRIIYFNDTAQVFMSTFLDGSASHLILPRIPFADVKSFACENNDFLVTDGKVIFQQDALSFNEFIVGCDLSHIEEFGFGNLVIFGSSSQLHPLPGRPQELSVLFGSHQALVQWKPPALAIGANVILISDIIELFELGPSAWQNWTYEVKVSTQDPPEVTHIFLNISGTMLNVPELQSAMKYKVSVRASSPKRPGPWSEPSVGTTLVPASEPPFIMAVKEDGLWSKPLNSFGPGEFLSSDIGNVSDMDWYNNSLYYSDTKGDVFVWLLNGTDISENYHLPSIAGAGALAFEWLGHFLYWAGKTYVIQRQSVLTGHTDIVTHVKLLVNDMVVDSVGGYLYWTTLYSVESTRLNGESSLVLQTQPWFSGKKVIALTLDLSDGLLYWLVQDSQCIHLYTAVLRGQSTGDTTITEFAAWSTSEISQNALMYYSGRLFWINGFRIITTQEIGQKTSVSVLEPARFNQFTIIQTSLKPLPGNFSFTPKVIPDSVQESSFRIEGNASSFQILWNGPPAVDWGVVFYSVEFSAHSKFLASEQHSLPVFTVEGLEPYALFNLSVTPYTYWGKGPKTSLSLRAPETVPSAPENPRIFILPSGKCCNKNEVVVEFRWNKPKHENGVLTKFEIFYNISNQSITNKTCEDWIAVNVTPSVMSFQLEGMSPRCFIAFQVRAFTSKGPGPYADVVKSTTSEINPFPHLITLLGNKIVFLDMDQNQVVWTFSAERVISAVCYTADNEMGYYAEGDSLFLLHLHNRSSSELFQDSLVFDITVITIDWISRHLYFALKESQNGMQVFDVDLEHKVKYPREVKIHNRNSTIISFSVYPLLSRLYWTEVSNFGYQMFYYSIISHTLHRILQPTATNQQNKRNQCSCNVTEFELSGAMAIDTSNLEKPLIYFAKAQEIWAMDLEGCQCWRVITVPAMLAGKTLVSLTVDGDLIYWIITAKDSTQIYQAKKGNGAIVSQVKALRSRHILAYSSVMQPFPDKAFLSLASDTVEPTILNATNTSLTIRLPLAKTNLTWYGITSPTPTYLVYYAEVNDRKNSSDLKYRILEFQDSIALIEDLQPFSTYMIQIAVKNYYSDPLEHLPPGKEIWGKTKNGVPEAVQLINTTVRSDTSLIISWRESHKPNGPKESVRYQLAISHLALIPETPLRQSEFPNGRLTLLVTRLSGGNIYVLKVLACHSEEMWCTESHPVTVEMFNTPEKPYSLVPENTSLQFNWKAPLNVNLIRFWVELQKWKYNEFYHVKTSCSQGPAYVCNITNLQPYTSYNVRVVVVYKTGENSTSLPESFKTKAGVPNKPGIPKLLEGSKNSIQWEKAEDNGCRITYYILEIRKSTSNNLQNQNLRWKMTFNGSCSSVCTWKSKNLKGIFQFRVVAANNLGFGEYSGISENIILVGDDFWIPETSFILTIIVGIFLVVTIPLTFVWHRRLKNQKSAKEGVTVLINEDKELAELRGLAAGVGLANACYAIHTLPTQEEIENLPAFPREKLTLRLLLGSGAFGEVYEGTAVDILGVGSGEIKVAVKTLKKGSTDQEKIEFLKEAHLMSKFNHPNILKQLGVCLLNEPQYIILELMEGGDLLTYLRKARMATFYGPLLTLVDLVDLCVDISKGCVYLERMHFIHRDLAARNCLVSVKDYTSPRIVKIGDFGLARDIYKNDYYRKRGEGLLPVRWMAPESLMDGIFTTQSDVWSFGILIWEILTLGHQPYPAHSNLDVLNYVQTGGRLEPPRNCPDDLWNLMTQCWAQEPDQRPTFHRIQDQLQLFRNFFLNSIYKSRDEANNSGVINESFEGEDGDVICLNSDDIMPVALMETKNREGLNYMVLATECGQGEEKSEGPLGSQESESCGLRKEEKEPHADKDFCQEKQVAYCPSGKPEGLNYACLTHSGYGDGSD

- inhibition (PAK4 (human); compound 0.2 µM): 16.2%
- inhibition (PAK4 (human); compound 4.0 µM): 62.8%
- inhibition (DDR2 (human); compound 0.2 µM): 55.8%
- inhibition (DDR2 (human); compound 4.0 µM): 98%
- inhibition (PRKCH (human); compound 0.2 µM): 2.3%
- inhibition (PRKCH (human); compound 4.0 µM): 20.7%
- inhibition (PAK6 (human); compound 0.2 µM): 6%
- inhibition (PAK6 (human); compound 4.0 µM): 22.2%
- inhibition (FER (human); compound 0.2 µM): 78.8%
- inhibition (FER (human); compound 4.0 µM): 102%
- inhibition (TAB1 (human); compound 0.2 µM): 83.7%
- inhibition (TAB1 (human); compound 4.0 µM): 101%
- inhibition (GSG2 (human); compound 0.2 µM): 39.2%
- inhibition (GSG2 (human); compound 4.0 µM): 89.7%
- inhibition (MAP4K4 (human); compound 4.0 µM): 101%
- inhibition (MKNK2 (human); compound 0.2 µM): 3.2%
- inhibition (MKNK2 (human); compound 4.0 µM): 28%
- inhibition (HIPK2 (human); compound 0.2 µM): 74.2%
- inhibition (HIPK2 (human); compound 4.0 µM): 99.3%
- inhibition (FGR (human); compound 0.2 µM): 63.4%
- inhibition (EPHA4 (human); compound 0.2 µM): 2.1%
- inhibition (EPHA4 (human); compound 4.0 µM): 40.8%
- inhibition (CHEK2 (human); compound 0.2 µM): 78.8%
- inhibition (CHEK2 (human); compound 4.0 µM): 98.8%
- inhibition (TAOK2 (human); compound 0.2 µM): 3.8%
- inhibition (TAOK2 (human); compound 4.0 µM): 18.6%
- inhibition (RPS6KA6 KD1 KD2 (human); compound 0.2 µM): 80.7%
- inhibition (RPS6KA6 KD1 KD2 (human); compound 4.0 µM): 97.8%
- inhibition (SLK (human); compound 0.2 µM): 78.3%
- inhibition (CDC42BPB (human); compound 0.2 µM): -0.5%
- inhibition (CDC42BPB (human); compound 4.0 µM): 14.2%
- inhibition (CAMK2G (human); compound 0.2 µM): 49.6%
- inhibition (CAMK2G (human); compound 4.0 µM): 96.2%
- inhibition (PRKCI (human); compound 0.2 µM): -2%
- inhibition (PRKCI (human); compound 4.0 µM): 7.8%
- inhibition (TNK2 (human); compound 0.2 µM): 13.6%
- inhibition (TNK2 (human); compound 4.0 µM): 76.8%
- inhibition (PDPK1 (human); compound 0.2 µM): -0.3%
- inhibition (PDPK1 (human); compound 4.0 µM): 36.5%
- inhibition (DYRK1B (human); compound 4.0 µM): 74.7%
- inhibition (JAK1 JH1 JH2 (human); compound 0.2 µM): 10.9%
- inhibition (JAK1 JH1 JH2 (human); compound 4.0 µM): 70.4%
- inhibition (CAMK2B (human); compound 0.2 µM): 5.2%
- inhibition (CAMK2B (human); compound 4.0 µM): 66.5%
- inhibition (ROS1 (human); compound 0.2 µM): 18.4%
- inhibition (ROS1 (human); compound 4.0 µM): 81.4%
- inhibition (JAK3 JH1 JH2 (human); compound 0.2 µM): 37.5%
- inhibition (JAK3 JH1 JH2 (human); compound 4.0 µM): 96%
- inhibition (MERTK (human); compound 0.2 µM): 96%
- inhibition (MERTK (human); compound 4.0 µM): 104%
- inhibition (FLT3 (human); compound 0.2 µM): 100%
- inhibition (FLT3 (human); compound 4.0 µM): 102%
- inhibition (EPHB2 (human); compound 0.2 µM): 22.2%
- inhibition (EPHB2 (human); compound 4.0 µM): 79.1%
- inhibition (TBK1 (human); compound 0.2 µM): 28.1%
- inhibition (TBK1 (human); compound 4.0 µM): 87.5%
- inhibition (MAPKAPK3 (human); compound 0.2 µM): 1.2%
- inhibition (MAPKAPK3 (human); compound 4.0 µM): 3.2%
- inhibition (CAMK2D (human); compound 0.2 µM): 88.8%
- inhibition (CAMK2D (human); compound 4.0 µM): 100%
SMILES: CCN(CC)CCNC(=O)c1c(C)[nH]c(/C=C2\C(=O)Nc3ccc(F)cc32)c1C

- inhibition (PAK4 (human); compound 0.02 µM): -8%
- inhibition (PAK4 (human); compound 0.2 µM): 4.4%
- inhibition (PRKCH (human); compound 0.02 µM): 2.1%
- inhibition (PAK6 (human); compound 0.02 µM): -6.6%
- inhibition (PAK6 (human); compound 0.2 µM): -32.1%
- inhibition (FER (human); compound 0.02 µM): -1.8%
- inhibition (FER (human); compound 0.2 µM): 13.2%
- inhibition (TAB1 (human); compound 0.02 µM): 4.8%
- inhibition (TAB1 (human); compound 0.2 µM): 14.3%
- inhibition (GSG2 (human); compound 0.02 µM): -3%
- inhibition (GSG2 (human); compound 0.2 µM): -1.8%
- inhibition (MAP4K4 (human); compound 0.02 µM): -4.1%
- inhibition (MAP4K4 (human); compound 0.2 µM): 6%
- inhibition (MKNK2 (human); compound 0.02 µM): 4.4%
- inhibition (MKNK2 (human); compound 0.2 µM): 48.3%
- inhibition (FGR (human); compound 0.02 µM): 1.6%
- inhibition (FGR (human); compound 0.2 µM): 14.2%
- inhibition (EPHA4 (human); compound 0.02 µM): -1.7%
- inhibition (EPHA4 (human); compound 0.2 µM): 22%
- inhibition (CHEK2 (human); compound 0.02 µM): -0.8%
- inhibition (CHEK2 (human); compound 0.2 µM): 2.2%
- inhibition (TAOK2 (human); compound 0.02 µM): 7.3%
- inhibition (TAOK2 (human); compound 0.2 µM): 48%
- inhibition (RPS6KA6 KD1 KD2 (human); compound 0.02 µM): -2%
- inhibition (RPS6KA6 KD1 KD2 (human); compound 0.2 µM): -6.2%
- inhibition (SLK (human); compound 0.02 µM): 1%
- inhibition (SLK (human); compound 0.2 µM): 10.6%
- inhibition (CDC42BPB (human); compound 0.02 µM): -3.1%
- inhibition (CDC42BPB (human); compound 0.2 µM): 0.8%
- inhibition (CAMK2G (human); compound 0.02 µM): -7%
- inhibition (CAMK2G (human); compound 0.2 µM): 2%
- inhibition (PRKCI (human); compound 0.02 µM): -0.2%
- inhibition (PRKCI (human); compound 0.2 µM): 5.7%
- inhibition (TNK2 (human); compound 0.02 µM): -5%
- inhibition (TNK2 (human); compound 0.2 µM): -3.2%
- inhibition (PDPK1 (human); compound 0.02 µM): -1%
- inhibition (PDPK1 (human); compound 0.2 µM): 0.9%
- inhibition (FES (human); compound 0.02 µM): -3.2%
- inhibition (FES (human); compound 0.2 µM): 7.2%
- inhibition (DYRK1B (human); compound 0.02 µM): -6.7%
- inhibition (DYRK1B (human); compound 0.2 µM): 0.6%
- inhibition (JAK1 JH1 JH2 (human); compound 0.02 µM): -1.7%
- inhibition (JAK1 JH1 JH2 (human); compound 0.2 µM): 3.1%
- inhibition (CAMK2B (human); compound 0.02 µM): -6.4%
- inhibition (CAMK2B (human); compound 0.2 µM): -7%
- inhibition (ROS1 (human); compound 0.2 µM): 1.3%
- inhibition (JAK3 JH1 JH2 (human); compound 0.02 µM): -3.6%
- inhibition (JAK3 JH1 JH2 (human); compound 0.2 µM): 8.1%
- inhibition (MERTK (human); compound 0.02 µM): -3.5%
- inhibition (MERTK (human); compound 0.2 µM): 10.2%
- inhibition (CSNK1G3 (human); compound 0.02 µM): -1.4%
- inhibition (CSNK1G3 (human); compound 0.2 µM): -6.9%
- inhibition (EPHB2 (human); compound 0.02 µM): -2.9%
- inhibition (EPHB2 (human); compound 0.2 µM): 14.4%
- inhibition (TBK1 (human); compound 0.02 µM): -1.4%
- inhibition (TBK1 (human); compound 0.2 µM): -1.1%
- inhibition (MAPKAPK3 (human); compound 0.02 µM): -6.2%
- inhibition (MAPKAPK3 (human); compound 0.2 µM): 3.5%
- inhibition (CAMK2D (human); compound 0.2 µM): 5.2%
SMILES: CNC(=O)c1cc(Oc2ccc(NC(=O)Nc3ccc(Cl)c(C(F)(F)F)c3)cc2)ccn1
